Active and inactive are the calls of the source. The rule behind the calls is not given here.
Assays:
Type in all cases: functional
[1] = Nephroprotective activity in serum deprived rat Glomerular mesangial cells assessed as fibronectin protein expression in presence of 25 mM glucose at 1 uM after 48 hrs by Western blot analysis (reference value: 270.11 +/- 19.17%)
[2] = Antioxidant activity in serum deprived rat Glomerular mesangial cells assessed as EOH level by measuring EOH/DHE level in presence of 25 mM glucose at 2.5 uM after 48 hrs by DHE based HPLC analysis (reference value: 654.98 +/- 32.31 nmol/micromol)
[3] = Nephroprotective activity in serum deprived rat Glomerular mesangial cells assessed as fibronectin protein expression in presence of 25 mM glucose at 5 uM after 48 hrs by Western blot analysis (reference value: 270.11 +/- 19.17%)
[4] = Nephroprotective activity in serum deprived rat Glomerular mesangial cells assessed as fibronectin protein expression in presence of 25 mM glucose at 2.5 uM after 48 hrs by Western blot analysis (reference value: 270.11 +/- 19.17%)
[5] = species: Rattus norvegicus; assay: Antioxidant activity in serum deprived rat Glomerular mesangial cells assessed as reduction in NADPH oxidase dependent super oxide generation in presence of 25 mM glucose at 0.5 uM after 48 hrs by Lucigenin-enhanced chemiluminescence method
[6] = Nephroprotective activity in serum deprived rat Glomerular mesangial cells assessed as fibronectin protein expression in presence of 25 mM glucose at 0.5 uM after 48 hrs by Western blot analysis (reference value: 270.11 +/- 19.17%)
[7] = species: Rattus norvegicus; assay: Antioxidant activity in serum deprived rat Glomerular mesangial cells assessed as reduction in NADPH oxidase dependent super oxide generation in presence of 25 mM glucose at 1 uM after 48 hrs by Lucigenin-enhanced chemiluminescence method
[8] = Antioxidant activity in serum deprived rat Glomerular mesangial cells assessed as EOH level by measuring EOH/DHE level in presence of 25 mM glucose at 5 uM after 48 hrs by DHE based HPLC analysis (reference value: 654.98 +/- 32.31 nmol/micromol)
[9] = Antioxidant activity in serum deprived rat Glomerular mesangial cells assessed as EOH level by measuring EOH/DHE level in presence of 25 mM glucose at 0.5 uM after 48 hrs by DHE based HPLC analysis (reference value: 654.98 +/- 32.31 nmol/micromol)
[10] = species: Rattus norvegicus; assay: Antiproliferative activity against serum deprived rat Glomerular mesangial cells assessed as reduction in 25 mM glucose-induced cell proliferation at 1 uM after 48 hrs by MTT assay
[11] = species: Rattus norvegicus; assay: Antiproliferative activity against serum deprived rat Glomerular mesangial cells assessed as reduction in 25 mM glucose-induced cell proliferation at 0.5 uM after 48 hrs by MTT assay
[12] = Antioxidant activity in serum deprived rat Glomerular mesangial cells assessed as EOH level by measuring EOH/DHE level in presence of 25 mM glucose at 1 uM after 48 hrs by DHE based HPLC analysis (reference value: 654.98 +/- 32.31 nmol/micromol)

Row | SMILES | Activity [1] [%] | Activity [2] [nmol/umol] | Activity [3] [%] | Activity [4] [%] | Activity [5] | Activity [6] [%] | Activity [7] | Activity [8] [nmol/umol] | Activity [9] [nmol/umol] | Activity [10] | Activity [11] | Activity [12] [nmol/umol]
1 | Cc1cn(CCC(=O)NNc2nc(NNC(=O)CCn3ccc(=O)[nH]c3=O)nc(NNC(=O)CCn3cc(C)c(=O)[nH]c3=O)n2)c(=O)[nH]c1=O | 135.87 | 249.97 | 121.34 | 127.09 | Active | 114.54 | Active | 240.46 | 323.17 | Active | Active | 257.69
2 | O=C(CCn1ccc(=O)[nH]c1=O)NNc1nc(Cl)nc(NNC(=O)CCn2ccc(=O)[nH]c2=O)n1 | 280.24 | 661.09 | 179.47 | 219.47 | – | 267.45 | – | 672.32 | 660.36 | – | – | 648.96
3 | NNC(=O)CCn1ccc(O)nc1=O | 265.72 | 654.48 | 227.83 | 241.91 | – | 268.71 | – | 618.26 | 666.94 | – | – | 671.47
4 | Cc1cn(CCC(=O)NNc2nc(Cl)nc(NNC(=O)CCn3cc(C)c(=O)[nH]c3=O)n2)c(=O)[nH]c1=O | 200.79 | 512.62 | 170.26 | 189.91 | – | 231.19 | – | 413.96 | 651.54 | – | – | 671.14
5 | Cc1cn(CCC(=O)NNc2nc(NNC(=O)CCn3ccc(=O)[nH]c3=O)nc(NNC(=O)CCn3ccc(=O)[nH]c3=O)n2)c(=O)[nH]c1=O | 145.64 | 231.15 | 151.18 | 143.41 | Active | 178.33 | Active | 217.62 | 454.37 | Active | Active | 306.28
6 | Cc1cn(CCC(=O)NNc2nc(NNC(=O)CCn3cc(C)c(=O)[nH]c3=O)nc(NNC(=O)CCn3cc(C)c(=O)[nH]c3=O)n2)c(=O)[nH]c1=O | 141.91 | 200.36 | 102.99 | 108.35 | Active | 182.76 | Active | 224.71 | 404.34 | Active | Active | 305.77
7 | Cc1cn(CCC(=O)NN)c(=O)nc1O | 272.26 | 683.28 | 239.46 | 251.59 | – | 289.17 | – | 710.14 | 701.09 | – | – | 658.92
8 | O=C(CCn1ccc(=O)[nH]c1=O)NNc1nc(NNC(=O)CCn2ccc(=O)[nH]c2=O)nc(NNC(=O)CCn2ccc(=O)[nH]c2=O)n1 | 167.88 | 198.48 | 121.19 | 142.45 | Active | 191.33 | Active | 210.93 | 359.07 | Active | Active | 274.37
